For this test, the target named is T1, hTLR9 (Homo sapiens, UniProt Q9NR96).
T1 sequence (Q9NR96 26-1032): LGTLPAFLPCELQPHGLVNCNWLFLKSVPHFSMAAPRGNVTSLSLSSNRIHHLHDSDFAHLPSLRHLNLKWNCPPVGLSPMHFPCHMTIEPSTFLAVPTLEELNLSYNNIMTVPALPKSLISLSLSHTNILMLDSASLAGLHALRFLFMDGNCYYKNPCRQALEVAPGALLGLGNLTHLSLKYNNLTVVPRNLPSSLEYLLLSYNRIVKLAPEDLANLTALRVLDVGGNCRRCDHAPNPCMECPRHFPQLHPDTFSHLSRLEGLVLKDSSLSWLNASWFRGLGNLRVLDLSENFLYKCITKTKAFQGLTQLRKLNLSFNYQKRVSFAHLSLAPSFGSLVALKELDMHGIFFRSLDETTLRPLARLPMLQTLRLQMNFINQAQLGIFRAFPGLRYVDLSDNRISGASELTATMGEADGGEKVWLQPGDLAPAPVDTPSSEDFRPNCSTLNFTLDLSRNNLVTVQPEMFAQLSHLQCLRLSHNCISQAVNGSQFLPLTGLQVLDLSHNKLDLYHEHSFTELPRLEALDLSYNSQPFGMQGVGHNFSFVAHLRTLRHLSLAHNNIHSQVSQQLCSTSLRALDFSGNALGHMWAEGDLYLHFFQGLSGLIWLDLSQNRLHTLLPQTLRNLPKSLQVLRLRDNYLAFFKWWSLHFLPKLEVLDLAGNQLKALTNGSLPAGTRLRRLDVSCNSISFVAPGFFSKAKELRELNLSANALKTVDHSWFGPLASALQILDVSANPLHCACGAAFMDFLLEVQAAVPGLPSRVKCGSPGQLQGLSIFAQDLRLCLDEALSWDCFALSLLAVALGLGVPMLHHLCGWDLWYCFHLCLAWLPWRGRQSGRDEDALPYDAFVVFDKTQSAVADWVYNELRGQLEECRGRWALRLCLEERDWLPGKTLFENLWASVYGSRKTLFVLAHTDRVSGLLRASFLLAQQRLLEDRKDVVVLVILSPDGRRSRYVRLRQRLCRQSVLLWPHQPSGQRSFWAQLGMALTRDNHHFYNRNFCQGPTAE
As to the kind of experiment: HEK293-Blue-hTLR-9 cells assay (SEAP reporter, ODN2006 stimulation). Type of test: cell-based. On the set-up: host or cells: HEK293 (HEK-Blue hTLR9). The settings on record: HEK293-Blue-hTLR9 cells, ODN2006, 20 hrs; read-out: HEK/hTLR9 IC50. The gist of the method: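 HEK293-Blue-hTLR9 cells with NF-κB/AP-1-driven SEAP reporter treated with serially diluted compound (1% DMSO final) plus ODN2006 for 20 h at 37 °C. Supernatant SEAP measured with QUANTI-Blue, 2 h at 37 °C, absorbance 620–655 nm; antagonism seen as reduced reporter signal.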
Turning to `C[C@@H]1CN(c2ccc(C#N)c3ncccc23)C[C@H](CN2CCN(c3ccnc(NC4CNC4)n3)CC2)O1` [Example 28, 5-[(2S,6R)-2-[[4-[2-(azetidin-3-ylamino)pyrimidin-4-yl]piperazin-1-yl]methyl]-6-methyl-morpholin-4-yl]quinoline-8-carbonitrile], the IC50 amounted to 65 nM. For `C[C@@H]1CN(c2ccc(C#N)c3ncccc23)C[C@H](CN2CCN(c3ccnc(N4CCNCC4)n3)CC2)O1` [Example 15, 5-[(2R,6S)-2-methyl-6-[[4-(2-piperazin-1-ylpyrimidin-4-yl)piperazin-1-yl]methyl]morpholin-4-yl]quinoline-8-carbonitrile], the IC50 worked out at 36 nM. The value for `CO[C@H]1CN(c2cccc(N3CCN(C[C@H]4CN(c5ccc(C#N)c6ncccc56)C[C@@H](C)O4)CC3)n2)C[C@H]1N` [Example 42, 5-[(2S,6R)-2-[[4-[6-[(3R,4S)-3-amino-4-methoxy-pyrrolidin-1-yl]-2-pyridyl]piperazin-1-yl]methyl]-6-methyl-morpholin-4-yl]quinoline-8-carbonitrile] was 147 nM; that for `C[C@@H]1CN(c2ccc(C#N)c3ncccc23)C[C@H](CN2CCN(c3ccnc(N[C@H]4CNC[C@H]4F)n3)CC2)O1` [Example 24, 5-[(2S,6R)-2-[[4-[2-[[(3S,4R)-4-fluoropyrrolidin-3-yl]amino]pyrimidin-4-yl]piperazin-1-yl]methyl]-6-methyl-morpholin-4-yl]quinoline-8-carbonitrile] was 32 nM. Consider `C[C@@H]1CN(c2ccc(C#N)c3ncccc23)C[C@H](CN2CCN(c3cccc(N4CC(N)C(F)C4)n3)CC2)O1` (stereo partly drawn) [Example 40, 5-[(2S,6R)-2-[[4-[6-(3-amino-4-fluoro-pyrrolidin-1-yl)-2-pyridyl]piperazin-1-yl]methyl]-6-methyl-morpholin-4-yl]quinoline-8-carbonitrile], for which the IC50 is 134 nM. The value for `C[C@@H]1CN(c2ccc(C#N)c3ncccc23)C[C@H](CN2CCN(c3ccnc(N4CCN(C(=O)C5CCN5)CC4)n3)CC2)O1` (stereo partly drawn) [Example 34, 5-[(2S,6R)-2-[[4-[2-[4-(azetidine-2-carbonyl)piperazin-1-yl]pyrimidin-4-yl]piperazin-1-yl]methyl]-6-methyl-morpholin-4-yl]quinoline-8-carbonitrile] was 71 nM; that for `COC1CN(c2nccc(N3CCN(C[C@H]4CN(c5ccc(C#N)c6ncccc56)C[C@@H](C)O4)CC3)n2)C[C@H]1N` (stereo in doubt) [Example 52, 5-[(2S,6R)-2-[[4-[2-[(3R,4R)-3-amino-4-methoxy-pyrrolidin-1-yl]pyrimidin-4-yl]piperazin-1-yl]methyl]-6-methyl-morpholin-4-yl]quinoline-8-carbonitrile] was 32 nM. Then `Cc1cc(N2CCN(C[C@H]3CN(c4ccc(C#N)c5ncccc45)C[C@@H](C)O3)CC2)nc(NC2CNCC2C#N)n1` (stereo partly drawn) [Example 57, 5-[(2S,6R)-2-[[4-[2-[(4-cyanopyrrolidin-3-yl)amino]-6-methyl-pyrimidin-4-yl]piperazin-1-yl]methyl]-6-methyl-morpholin-4-yl]quinoline-8-carbonitrile], with 38 nM; and `C[C@@H]1CN(c2ccc(C#N)c3ncccc23)C[C@H](CN2CCN(c3ccnc(N4CCC(N)CC4)n3)CC2)O1` [Example 27, 5-[(2S,6R)-2-[[4-[2-(4-amino-1-piperidyl)pyrimidin-4-yl]piperazin-1-yl]methyl]-6-methyl-morpholin-4-yl]quinoline-8-carbonitrile], with 43 nM. Then `Cc1cc(N2CCN(C[C@H]3CN(c4ccc(C#N)c5ncccc45)C[C@@H](C)O3)CC2)nc(N2C[C@@H]3COC[C@@H](C2)N3)n1` [Example 58, 5-[(2R,6S)-2-methyl-6-[[4-[6-methyl-2-[(1R,5R)-3-oxa-7,9-diazabicyclo[3.3.1]nonan-7-yl]pyrimidin-4-yl]piperazin-1-yl]methyl]morpholin-4-yl]quinoline-8-carbonitrile], with 45 nM; and `Cc1cc(N2CCN(C[C@H]3CN(c4ccc(C#N)n5ncc(F)c45)C[C@@H](C)O3)CC2)nc(N2CCNCC2)n1` [Example 67, 3-Fluoro-4-[(2R,6S)-2-methyl-6-[[4-(6-methyl-2-piperazin-1-yl-pyrimidin-4-yl)piperazin-1-yl]methyl]morpholin-4-yl]pyrazolo[1,5-a]pyridine-7-carbonitrile], with 81 nM; and `C[C@@H]1CN(c2ccc(C#N)c3ncccc23)C[C@H](CN2CCN(c3ccnc(N4CCN[C@@H](CO)C4)n3)CC2)O1` [Example 29, 5-[(2S,6R)-2-[[4-[2-[(3R)-3-(hydroxymethyl)piperazin-1-yl]pyrimidin-4-yl]piperazin-1-yl]methyl]-6-methyl-morpholin-4-yl]quinoline-8-carbonitrile], with 51 nM. Turning to `C[C@@H]1CN(c2ccc(C#N)c3ncccc23)C[C@H](CN2CCN(c3ccnc(N4CC(N)C4)n3)CC2)O1` [Example 23, 5-[(2S,6R)-2-[[4-[2-(3-aminoazetidin-1-yl)pyrimidin-4-yl]piperazin-1-yl]methyl]-6-methyl-morpholin-4-yl]quinoline-8-carbonitrile], the IC50 worked out at 232 nM. Then `CO[C@H]1CN(c2nccc(N3CCN(C[C@H]4CN(c5ccc(C#N)c6ncccc56)C[C@@H](C)O4)CC3)n2)CC1N` (stereo in doubt) [Example 53, 5-[(2S,6R)-2-[[4-[2-[(3S,4S)-3-amino-4-methoxy-pyrrolidin-1-yl]pyrimidin-4-yl]piperazin-1-yl]methyl]-6-methyl-morpholin-4-yl]quinoline-8-carbonitrile], with 32 nM; and `COC1CN(c2ccc(C3CN(C[C@H]4CN(c5cc(=O)n(C)c6ncccc56)C[C@@H](C)O4)C3)cc2)C[C@H]1N` (stereo in doubt) [Example 172, 4-[(2S,6R)-2-[[3-[4-[(3R,4R)-3-amino-4-methoxy-pyrrolidin-1-yl]phenyl]azetidin-1-yl]methyl]-6-methyl-morpholin-4-yl]-1-methyl-1,8-naphthyridin-2-one], with 57 nM. Then `C[C@@H]1CN(c2ccc(C#N)c3ncccc23)C[C@H](CN2CCN(c3ncc(C#N)c(N4CCNCC4)n3)CC2)O1` [Example 51, 5-[(2S,6R)-2-[[4-(5-cyano-4-piperazin-1-yl-pyrimidin-2-yl)piperazin-1-yl]methyl]-6-methyl-morpholin-4-yl]quinoline-8-carbonitrile], with 121 nM; and `C[C@@H]1CN(c2ccc(C#N)c3ncccc23)C[C@H](CN2CCN(c3cccc(NC4CNC4)n3)CC2)O1` [Example 38], with 97 nM. Turning to `Cc1cc(N2CCN(C[C@H]3CN(c4ccc(C#N)c5ncccc45)C[C@@H](C)O3)CC2)nc(N2C[C@@H](N)[C@@H](F)C2)n1` [Example 55, 5-[(2S,6R)-2-[[4-[2-[(3R,4S)-3-amino-4-fluoro-pyrrolidin-1-yl]-6-methyl-pyrimidin-4-yl]piperazin-1-yl]methyl]-6-methyl-morpholin-4-yl]quinoline-8-carbonitrile], the IC50 was found to be 32 nM. The value for `CO[C@H]1CN(c2nc(C)cc(N3CCN(C[C@H]4CN(c5ccc(C#N)c6ncccc56)C[C@@H](C)O4)CC3)n2)CC1N` (relative stereo) [Example 59, 5-[(2R,6S)-2-methyl-6-[[4-[6-methyl-2-[trans-3-amino-4-methoxy-pyrrolidin-1-yl]pyrimidin-4-yl]piperazin-1-yl]methyl]morpholin-4-yl]quinoline-8-carbonitrile] was 32 nM; that for `C[C@@H]1CN(c2ccc(C#N)c3ncccc23)C[C@H](CN2CCN(c3cc(N4CCNCC4)ccn3)CC2)O1` [Example 9, 5-[(2R,6S)-2-methyl-6-[[4-(4-piperazin-1-yl-2-pyridyl)piperazin-1-yl]methyl]morpholin-4-yl]quinoline-8-carbonitrile] was 32 nM. Then `C[C@@H]1CN(c2ccc(C#N)n3ncc(F)c23)C[C@H](CN2CCN(c3ccc(N[C@H]4CNC[C@H]4F)nc3)CC2)O1` [Example 167, 3-fluoro-4-[(2S,6R)-2-[[4-[6-[[(3S,4R)-4-fluoropyrrolidin-3-yl]amino]-3-pyridyl]piperazin-1-yl]methyl]-6-methyl-morpholin-4-yl]pyrazolo[1,5-a]pyridine-7-carbonitrile], with 46 nM.

The values are drawn from US20210395239A1 (Hoffmann-La Roche Inc., priority 2018, published 2021).
